According to patent US9402826B2, “Neuronal pain pathway modulators” (The Trustees of Columbia University in the City of New York, priority 2006, dated 2016):
Like-named read-outs stand apart in the source and are kept apart here.

Legend:
[1] = system: rats; conditions: intrathecal, after induction of an inflammatory response, 10 and 60 minutes later; cited from earlier work
[2] = target: T1, PKG (Homo sapiens, UniProt Q13976); assay: PKG inhibition: transfer of gamma-32P from ATP to peptide substrate; assay type: biochemical
T1 sequence (Q13976 1-671): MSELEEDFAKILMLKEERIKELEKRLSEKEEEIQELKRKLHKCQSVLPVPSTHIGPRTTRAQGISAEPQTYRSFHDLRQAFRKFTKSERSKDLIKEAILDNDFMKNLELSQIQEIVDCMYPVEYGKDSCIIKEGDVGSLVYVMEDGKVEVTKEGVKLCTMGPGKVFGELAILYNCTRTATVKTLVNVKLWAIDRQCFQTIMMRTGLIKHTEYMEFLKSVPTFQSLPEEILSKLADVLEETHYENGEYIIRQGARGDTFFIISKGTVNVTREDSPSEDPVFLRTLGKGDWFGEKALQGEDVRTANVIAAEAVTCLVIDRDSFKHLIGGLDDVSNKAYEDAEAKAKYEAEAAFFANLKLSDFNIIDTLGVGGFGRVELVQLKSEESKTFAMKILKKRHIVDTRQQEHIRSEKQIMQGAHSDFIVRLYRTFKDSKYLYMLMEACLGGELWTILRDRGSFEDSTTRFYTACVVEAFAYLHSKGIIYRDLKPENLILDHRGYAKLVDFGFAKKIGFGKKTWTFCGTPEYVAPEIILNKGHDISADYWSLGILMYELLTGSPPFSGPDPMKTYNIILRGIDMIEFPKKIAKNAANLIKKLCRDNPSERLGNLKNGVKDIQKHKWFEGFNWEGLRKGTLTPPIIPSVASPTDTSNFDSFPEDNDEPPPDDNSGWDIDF

[3] = target: T2, PKA (Homo sapiens, UniProt P17612); assay: PKA inhibition; assay type: biochemical; conditions: for difference of IC50 for PKA versus PKG: PKA IC50 relative to PKG IC50
[4] = system: PKC isoforms; conditions: Series B, Table 2; read-out: IC50 PKC isoforms from literature; cited from earlier work
[5] = target: T2, PKA; conditions: cited from earlier work
[6] = system: CFA-induced thermal hyperalgesia in the hindpaws of rats; assay: CFA-induced thermal hyperalgesia, hindpaw withdrawal latency; assay type: in vivo; conditions: rat; for Effectiveness: 24 hours after CFA injection
Protocol: Both compounds were further tested for their efficacy in reducing complete Freund's adjuvant (CFA)-induced thermal hyperalgesia in the hindpaws of rats. The hindpaws of rats were first tested for their response to a thermal probe as a baseline reference. Then the right hindpaw was injected with CFA (100 μl). The injected site developed edema and redness, indicating an inflammatory reaction, within 12 hours. […] The rats were then given either compound 6 or 46 at different times after CFA injection via different routes as shown in the tables below. Each hindpaw was then tested for its response to a thermal stimulus on successive days.

[7] = system: rats; assay: Behavioural and motor observation of treated rats; assay type: in vivo; conditions: rat; eating, sleeping, defecating, micturation, balance, exploring, socialization
Protocol: Modification of compound 6 to increase affinity and selectivity, and perhaps plasma half-life, as described above, will be important. […] For example, the animals had difficulty in changing from the supine to prone positions. […] The effects lasted for at least 24 hours and disappeared after 3 days.

[8] = Activity: IC50 vrs PKG, Series B, 30 μM ATP
[9] = Table 4, read-out: PKA inhibition (IC50)

For CCN(CC)CC.Nc1nc2c(nc(Sc3ccc(Cl)cc3)n2[C@@H]2O[C@@H]3COP(O)(=S)O[C@H]3[C@H]2O)c(=O)[nH]1 (stereo partly shown) [Rp-8-[4-chlorophenyl)thio]-cGMPS triethylamine], the “effect on acute pain” value [1] is given as “significant attenuation of acute pain”.
For O=C(Nc1ccccc1)Nc1ccc(C(=O)O[C@@H]2CCC[C@H]2NC(=O)c2ccc(O)cc2)cc1 (relative stereo) [Series A 11], the “Activity (ability to inhibit PKG)” value ([2]; Series A, compounds at 10 μM, 30 μM ATP) was “no inhibition”.
For O=C(N[C@@H]1CNC[C@H]1NC(=O)c1ccc2[nH]ncc2c1)c1ccc(O)cc1 [Compound B-50], the IC50 ([2]; IC50 (PKG), text b321) was 70 nM, the “selectivity over PKA (in words)” value ([3]; PKG versus PKA) was “no selectivity over PKA” and the IC50 ([3]; Table 6, read-out: PKA inhibition (IC50)) was 70 nM.
For O=C(NC1CNCC1OC(=O)c1cc(O)c(C(=O)c2c(O)cccc2C(=O)O)c(O)c1)c1ccc(O)cc1 (stereo not shown) [Compound B-2, reference compound], the “reduction of PKG inhibition relative to balanol” value [2] was 5 fold, the IC50 [2, 8] was 7 nM and the IC50 ([2]; PKG activity (IC50), Table 1) was 7 nM. The IC50 ([2]; PKG inhibition (IC50), Table 3) was 7 nM, the “difference of IC50 for PKA versus PKG” value [3] was 3 fold and the IC50 [4] was 4 to 33 nM. The IC50 ([5]; read-out: IC50 PKA from literature, Series B, Table 2) was 70 nM, the IC50 ([5]; read-out: PKA activity (IC50), Table 1, from Lai et al. 1997) was 4 to 33 nM and the IC50 ([5]; read-out: PKA inhibition (IC50), Table 3, same values given as from literature in Table 2) was 70 nM.
Compound O=C(NC1CCCC1OC(=O)c1cc(O)c(C(=O)c2c(O)cccc2C(=O)O)c(O)c1)c1ccc(O)cc1 (stereo not shown) [Compound B-1, reference compound] has an IC50 [2, 8] of 7 to 8 nM, an IC50 ([2]; PKG activity (IC50), Table 1) of 7 to 8 nM and an IC50 ([2]; PKG inhibition (IC50), Table 3) of 7 nM. The “difference of IC50 for PKA versus PKG” value [3] was 3 fold.
Compound O=C(NC1CNCCCC1OC(=O)c1cc(O)c(C(=O)c2c(O)cccc2C(=O)O)c(O)c1)c1ccc(O)cc1 (stereo not shown) [balanol, reference compound] has an IC50 ([2]; Table 3, read-out: PKG inhibition (IC50)) of 1.6 nM.
COCOc1ccc(OC)c(F)c1C(=O)c1ccc(C(=O)OC2CNCC2NC(=O)c2ccc(O)cc2)cc1 (stereo not shown) [Compound B-6] gave an IC50 [2, 8] of 40 nM, an IC50 ([2]; IC50 with PKG, Example 12) of 40 nM and an IC50 ([2]; PKG activity (IC50), Table 1) of 40 nM. The IC50 ([2]; PKG inhibition (IC50), Table 4) was 40 nM, the IC50 ([3]; Example 12, read-out: IC50 with PKA) was 950 nM and the “difference of IC50 for PKA versus PKG” value [3] was “about 20 fold”. The IC50 [3, 9] was 950 nM, the “Effectiveness (recovery)” value ([6]; 3.3 nmol, subcutaneous pump, 60 hours after CFA injection, 5 days later) was over 90% and the “Effectiveness (recovery)” value ([6]; 0.25 μM final CSF conc., intrathecal pump, 72 hours after CFA injection, 10 days) was over 50%. The Effectiveness ([6]; 25 μM final CSF conc., intrathecal pump, 6 days later) was over 90% 6 days, the Effectiveness ([6]; 82.5 μM final CSF conc., intrathecal single injection) was “No effect” and the “analgesic effects (in words)” value ([6]; doses and routes tested, preliminary results) was “analgesic effects comparable to that achieved with the most potent commercially available inhibitor of PKG”. For the same compound, the “effect on thermal hyperalgesia” value ([6]; single dose injection) was “failed to reduce thermal hyperalgesia” and the adverse behavioral effects [7] was “did not exhibit any adverse behavioral effects”.
For O=C(N[C@@H]1CNC[C@H]1NC(=O)c1ccc(O)cc1)c1ccc(O)cc1 [Compound B-48], the “PKG inhibitory activity (in words)” value [2] was “moderate PKG inhibitory activity” and the IC50 ([2]; Table 6, read-out: PKG inhibition (IC50)) was about 200 nM.
With COc1ccc(O)c(C(=O)c2ccc(C(=O)OC3CNCC3NC(=O)c3ccc(O)cc3)cc2)c1F (stereo not shown) [Compound B-7] the IC50 [2, 8] was 40 nM, the IC50 ([2]; PKG activity (IC50), Table 1) was 40 nM and the IC50 ([2]; PKG inhibition (IC50), Table 4) was 40 nM. The “difference of IC50 for PKA versus PKG” value [3] was “approximately the same IC50”, the IC50 ([3]; Series B, Table 2, read-out: Activity: IC50 vrs PKA) was 38 nM and the IC50 ([3]; Table 1, read-out: PKA activity (IC50)) was 38 nM. The IC50 [3, 9] was 40 nM.
In the case of O=C(OCc1ccccc1Cl)c1ccc(-c2ccc(O)cc2)cc1 [Compound 8J], the “inhibition of PKG activity” value ([2]; 10 μM compound, average of two independent experiments) is reported as “weaker inhibition” and the “inhibitory activity on PKG (in words)” value ([2]; 1 and 10 micromolar compound (FIGS. 10A-B)) is reported as “significant inhibitory activity”.
Work on CCCOc1ccc(OC)c(F)c1C(=O)c1ccc(C(=O)OC2CNCC2NC(=O)c2ccc(O)cc2)cc1 (stereo not shown) [Compound B-21] yielded an IC50 ([2]; PKG inhibition (IC50), Table 4) of 200 nM and an IC50 [3, 9] of over 10000 nM.
